Measurements as given in US11780826B2 (Amgen Inc., priority 2017, dated 2023).

System: Bovine cardiac myofibrils
Assay: In vitro model of dose-dependent myofibril ATPase modulation (AC1.4, pyruvate kinase/lactate dehydrogenase-coupled ATPase assay at pCa25)
Format: biochemical
Conditions: concentration at which ATPase activity was 1.4-fold higher than the bottom of the dose curve, mean of a minimum of two independent tests
Method in brief: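 Coupled-enzyme ATPase on bovine heart myofibrils, 1 mM ATP, EGTA/CaCl2 buffered; 340 nm readout.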

AC1.4 [µM] | SMILES
4.59 | CS(=O)(=O)c1cccc(C(=O)N2[C@@H](C(=O)N[C@@H](c3ccc(C(F)(F)F)cc3F)C3(F)COC3)C[C@H]3C[C@H]32)c1 [Example 676, (1R,3R,5R)-N-((S)-(3-fluoro-3-oxetanyl)(2-fluoro-4-(trifluoromethyl)phenyl)methyl)-2-(3-(methylsulfonyl)benzoyl)-2-azabicyclo[3.1.0]hexane-3-carboxamide]
4.987 | CN(C)S(=O)(=O)c1cccc(C(=O)N2CCCCC2C(=O)NCc2ccc(C(F)(F)F)cc2)c1 (centres unmarked) [Example 677, 1-(3-(N,N-dimethylsulfamoyl)benzoyl)-N-(4-(trifluoromethyl)benzyl)piperidine-2-carboxamide]
4.993 | CN(C)S(=O)(=O)c1cccc(C(=O)N2CCC[C@@H]2C(=O)N[C@H](CO)c2ccc(C(F)(F)F)cc2)c1 [Example 678, 1-(3-(dimethylsulfamoyl)benzoyl)-N-((1S)-2-hydroxy-1-(4-(trifluoromethyl)phenyl)ethyl)-D-prolinamide]
5.023 | O=C(NCc1ccc(C(F)(F)F)cc1)[C@H]1CCCN1C(=O)[C@H]1CCCN(S(=O)(=O)N2CC(n3cncn3)C2)C1 [Example 679, 1-(((3S)-1-((3-(1H-1,2,4-triazol-1-yl)-1-azetidinyl)sulfonyl)-3-piperidinyl)carbonyl)-N-(4-(trifluoromethyl)benzyl)-D-prolinamide]
5.0333 | O=C(N[C@@H](c1ccc(C(F)(F)F)cc1F)C1CC1)[C@H]1C[C@H]2C[C@H]2N1C(=O)c1cncc(C(F)(F)F)c1 [Example 680, (1R,3R,5R)-N-((R)-cyclopropyl(2-fluoro-4-(trifluoromethyl)phenyl)methyl)-2-((5-(trifluoromethyl)-3-pyridinyl)carbonyl)-2-azabicyclo[3.1.0]hexane-3-carboxamide]
5.0425 | COc1cc(F)cc(CNC(=O)[C@H]2CCCN2C(=O)[C@H]2CCCN(S(=O)(=O)N3CC(C#N)C3)C2)c1 [Example 681, 1-(((3S)-1-((3-cyano-1-azetidinyl)sulfonyl)-3-piperidinyl)carbonyl)-N-(3-fluoro-5-methoxybenzyl)-D-prolinamide]
4.606 | CS(=O)(=O)c1cncc(C(=O)N2C[C@H](C(F)F)C[C@@H]2C(=O)N[C@@H](c2ccc(C(F)(F)F)cc2F)C2CC2)c1 [Example 682, (4R)-N-((R)-cyclopropyl(2-fluoro-4-(trifluoromethyl)phenyl)methyl)-4-(difluoromethyl)-1-((5-(methylsulfonyl)-3-pyridinyl)carbonyl)-D-prolinamide]
5.096 | CC1(O)CN(S(=O)(=O)N2CCC[C@H](C(=O)N3C[C@@H](F)C[C@@H]3C(=O)NCc3ccc(C(F)(F)F)cc3)C2)C1 [Example 683, (4S)-4-fluoro-1-(((3S)-1-((3-hydroxy-3-methyl-1-azetidinyl)sulfonyl)-3-piperidinyl)carbonyl)-N-(4-(trifluoromethyl)benzyl)-D-prolinamide]
5.1985 | N#CC1CN(S(=O)(=O)N2CCC[C@H](C(=O)N3CCC[C@@H]3C(=O)NCc3ccccc3F)C2)C1 [Example 684, 1-(((3S)-1-((3-cyano-1-azetidinyl)sulfonyl)-3-piperidinyl)carbonyl)-N-(2-fluorobenzyl)-D-prolinamide]
5.246 | CS(=O)(=O)c1cccc(C(=O)N2[C@@H](C(=O)NC(c3ccc(C(F)(F)F)cc3F)C3CNC(=O)C3)C[C@H]3C[C@H]32)c1 (stereo partly drawn) [Example 685, (1R,3R,5R)-N-((2-fluoro-4-(trifluoromethyl)phenyl)(5-oxopyrrolidin-3-yl)methyl)-2-(3-(methylsulfonyl)benzoyl)-2-azabicyclo[3.1.0]hexane-3-carboxamide]
5.284 | O=C(N[C@@H](c1ccc(C(F)(F)F)c(F)c1)C1CC1)[C@H]1C[C@H]2C[C@H]2N1C(=O)c1ccnc(S(=O)(=O)C2CC2)c1 [Example 686, (1R,3R,5R)-N-((R)-cyclopropyl(3-fluoro-4-(trifluoromethyl)phenyl)methyl)-2-((2-(cyclopropylsulfonyl)-4-pyridinyl)carbonyl)-2-azabicyclo[3.1.0]hexane-3-carboxamide]
5.299 | NS(=O)(=O)c1ccc(Cl)c(C(=O)N2CCC[C@@H]2C(=O)N[C@@H](c2ccc(C(F)(F)F)cc2F)C2CC2)c1 [Example 687, 1-(2-chloro-5-sulfamoylbenzoyl)-N-((R)-cyclopropyl(2-fluoro-4-(trifluoromethyl)phenyl)methyl)-D-prolinamide]
5.317 | Cc1noc(C2CN(S(=O)(=O)N3CCC[C@H](C(=O)N4CCC[C@@H]4C(=O)NCc4ccc(C(F)(F)F)cc4)C3)C2)n1 [Example 688, 1-(((3S)-1-((3-(3-methyl-1,2,4-oxadiazol-5-yl)-1-azetidinyl)sulfonyl)-3-piperidinyl)carbonyl)-N-(4-(trifluoromethyl)benzyl)-D-prolinamide]
5.334 | N#CC1CN(S(=O)(=O)c2cccc(C(=O)N3CCC[C@@H]3C(=O)NCCn3ccc(C(F)(F)F)n3)c2)C1 [Example 689, 1-((3-((3-cyano-1-azetidinyl)sulfonyl)phenyl)carbonyl)-N-(2-(3-(trifluoromethyl)-1H-pyrazol-1-yl)ethyl)-D-prolinamide]
5.354 | CS(=O)(=O)c1cc(C(=O)N2CCC[C@@H]2C(=O)N[C@@H](c2ccc(C(F)(F)F)cc2F)C2CC2)ccc1F [Example 690, N-((R)-cyclopropyl(2-fluoro-4-(trifluoromethyl)phenyl)methyl)-1-(4-fluoro-3-(methylsulfonyl)benzoyl)-D-prolinamide]
5.3575 | CC1(c2cccc(C(=O)N3CCC[C@@H]3C(=O)N[C@@H](c3ccc(C(F)(F)F)cc3F)C3CC3)c2)COC1 [Example 691, N-((R)-cyclopropyl(2-fluoro-4-(trifluoromethyl)phenyl)methyl)-1-(3-(3-methyl-3-oxetanyl)benzoyl)-D-prolinamide]
5.379 | COCC(=O)NC1CN(S(=O)(=O)N2CCC[C@H](C(=O)N3CCC[C@@H]3C(=O)NCc3ccc(C(F)(F)F)cc3)C2)C1 [Example 692, 1-(((3S)-1-((3-((methoxyacetyl)amino)-1-azetidinyl)sulfonyl)-3-piperidinyl)carbonyl)-N-(4-(trifluoromethyl)benzyl)-D-prolinamide]
5.425 | CN1C[C@H](C(=O)N[C@@H](c2ccc(C(F)(F)F)cc2F)C2CC2)N(C(=O)c2cccc(S(C)(=O)=O)c2)C1=O [Example 693, (4R)-N-((R)-cyclopropyl(2-fluoro-4-(trifluoromethyl)phenyl)methyl)-1-methyl-3-(3-(methylsulfonyl)benzoyl)-2-oxo-4-imidazolidinecarboxamide]
5.48 | N#CC1CN(S(=O)(=O)N2CCC[C@H](C(=O)N3CCC[C@H]3C(=O)NCc3cc(F)cc(F)c3)C2)C1 [Example 694, 1-(((3S)-1-((3-cyano-1-azetidinyl)sulfonyl)-3-piperidinyl)carbonyl)-N-(3,5-difluorobenzyl)-L-prolinamide]
5.5132 | Cc1cncc(C(=O)N2[C@@H](C(=O)N[C@@H](c3cc(F)c(Cl)cc3F)C3COC3)C[C@H]3C[C@H]32)c1 [Example 695, (1R,3R,5R)-N-((R)-(4-chloro-2,5-difluorophenyl)(3-oxetanyl)methyl)-2-((5-methyl-3-pyridinyl)carbonyl)-2-azabicyclo[3.1.0]hexane-3-carboxamide]
